The record followed here is patent publication US20230096663A1, “FARNESOID X RECEPTOR MODULATING COMPOUNDS AND METHODS OF USING THE SAME” (Inorbit Therapeutics AB, priority 2020, published 2023).

Data set [1] has as its system HFHC fed male C57BL/6 mice. The experiment in a line: In-vivo efficacy in high fat high cholesterol diet (HFHC) fed male C57BL/6 mice. The conditions noted are these: oral, 3 mg/kg BID, 3 mg/kg QD and 10 mg/kg BID, after 28 days.
Description: C57BL/6J male mice were purchased at the age of 8 weeks. After an acclimation period of 1 week, animals were maintained on high fat high cholesterol diet (Research diets) with 60% kcal from fat plus 0.5% (w/w) extra cholesterol (Research diet, D02051401) for a period of 4 weeks. Age matched control animals (n=6) were maintained on normal chow. Mice were dosed with vehicle, test compounds and GW4064 morning (7.00 AM) and evening (5:00 PM) from day 0 to 27. At 28th day, animals were dosed at 7:00 AM and kept on fasting for next 4 hours before blood and tissues collection. Plasma samples separated from collected blood were stored at −20° C. immediately for estimation analysis. The samples were analyzed using the Siemens Dimension RxL Max Clinical chemistry analyzer.
Right liver lobe was used for the test compounds exposure, triglyceride and cholesterol estimation. Liver tissues were dissected, weighed and snap frozen and stored at −80° C. for further analysis of hepatic triglyceride, cholesterol and compound exposure. In brief, stored tissues were thawed to room temperature and triglycerides were extracted by homogenizing 25 mg of liver tissues in 1 ml of 5% Triton X100 (Lot No. 61K01741-Sigma Aldrich) in water. Homogenized tissues were slowly heated to 80° C. in water bath for 5 minutes. The samples were cooled down and again heated to solubilize all the triglycerides into solution. The samples were centrifuged for 5 minutes at 4000 RPM and supernatant was collected for quantification^3 using commercially available kit from ERBA (Lot No. B061832).
Homogenized samples were centrifuge at 13000 g for 10 minutes to remove insoluble material. The organic phase was separated into new tube and air dried at 50° C. to remove chloroform. Thereafter, samples were vacuumed for 30 minutes to remove residue organic solvent. Dried lipids were dissolved in 200 μL of cholesterol assay buffer (provided with Sigma cholesterol assay kit Lot No. B2J210603V), sonicated for 20 minutes and vortexed until mixture was homogenous as mentioned in kit protocol. Samples were diluted with cholesterol assay buffer at (1:10) ratio to fit in standard curve and finally 50 μL of diluted samples were used for the assay.
Compound levels were also measured in the plasma and liver to understand its distribution profile.
The nature of data set [2]: Compound exposure in plasma and liver of HFHC fed male mice. The conditions noted are these: C57BL/6J, mouse, oral. It is filed as in vivo.
Data set [3] has as its system FXR related genes (BSEP, SHP) in primary human hepatocytes. The data set can be described thus: Gene expression in human primary hepatocytes (BSEP, SHP). It is filed as cell-based. The conditions noted are these: 24 hours incubation. Here is the method:
The test compound was dissolved in buffer to give a 10 mM stock solution. The compound was serially diluted to the desired concentrations and then incubated with human primary hepatocytes for 24 hours at 37° C. in a CO2 incubator. After incubation, the media was removed and the RNA harvested using the Trizol-CHCl3 method and quantified using Nano drop. The RNA was then Reverse Transcribed to cDNA using a superscript vilo cDNA synthesis kit. The cDNA with respective Taqman primers, master mix are then amplified using quantitative RT-PCR system. […] The compounds of examples 2 and 3 upregulate FXR related and disease relevant genes on incubation with primary human hepatocytes. […] It is a uni-directional, ATP-dependent efflux transporter that plays an important role in the elimination of bile salts from the hepatocyte into the bile canaliculi for export into the gastrointestinal tract. FXR also induces the expression of small heterodimer partner (SHP) which controls a complex set of genes in multiple metabolic pathways. It reduces the expression of CYP7A1, a liver-specific enzyme that catalyzes the first and rate-limiting step in one of the two pathways for bile acid biosynthesis.

Each structure is given as a SMILES string. Where two headings read alike, the source gives them in different places.

For the molecule `Cc1cc(S(=O)[O-])cc2sc(N3[C@@H]4CC[C@H]3C[C@@H](OCc3c(-c5ccccc5OC(F)(F)F)noc3C3CC3)C4)nc12.[Na+]` [Example 3, Sodium 2-(3-((5-cyclopropyl-3-(2-(trifluoromethoxy)phenyl)isoxazol-4-yl)methoxy)-8-azabicyclo[3.2.1]octan-8-yl)-4-methylbenzo[d]thiazole-6-sulfinate], the “Cholesterol levels in the liver” value in data set [1] is given as “reductions”. The “Cholesterol levels in the plasma” value in data set [1] is “reductions”. In addition, in data set [1], the Liver triglycerides result is reported as “reductions”. Besides, the concentration at 4 h in data set [2] (liver, 3 mg/kg, 3 mg/kg BID oral, 4 hours after last dose on day 28, read-out: Mean compound exposure, Liver) came out at 88.9 ng/g; in data set [2] (liver, 10 mg/kg, 10 mg/kg BID oral, 4 hours after last dose on day 28, read-out: Mean compound exposure, Liver), 198 ng/g; in data set [2] (liver, 10 mg/kg, 10 mg/kg QD oral, 4 hours after last dose on day 28, read-out: Mean compound exposure, Liver) it was 176 ng/g; in data set [2] (plasma, 3 mg/kg, 3 mg/kg BID oral, 4 hours after last dose on day 28, read-out: Mean compound exposure, Plasma) it was 3.7 ng/mL; in data set [2] (plasma, 10 mg/kg, 10 mg/kg BID oral, 4 hours after last dose on day 28, read-out: Mean compound exposure, Plasma), 11.5 ng/mL; in data set [2] (plasma, 10 mg/kg, 10 mg/kg QD oral, 4 hours after last dose on day 28, read-out: Mean compound exposure, Plasma), 5.9 ng/mL. Further, the “Expression of FXR related and disease relevant genes (BSEP, SHP)” value in data set [3] is given as “upregulate”.
